This note sets out measurements from US9474759B2 (priority 2011, dated 2016).

This assay deals with NV 3CLpro (codon-optimized, full-length, N-terminal 6 His, recombinant) (Norovirus, UniProt Q83883). Type of assay: biochemical, Norwalk virus (human norovirus GI).
Chain of NV 3CLpro (codon-optimized, full-length, N-terminal 6 His, recombinant) (Q83883 1101-1281): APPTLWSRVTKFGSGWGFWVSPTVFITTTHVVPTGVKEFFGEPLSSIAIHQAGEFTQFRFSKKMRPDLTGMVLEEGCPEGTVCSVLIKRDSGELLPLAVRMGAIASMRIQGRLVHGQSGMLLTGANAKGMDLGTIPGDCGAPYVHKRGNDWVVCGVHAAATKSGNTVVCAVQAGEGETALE

As to `CC(C)C[C@H](NC(=O)OCc1ccccc1)C(=O)N[C@H](C=O)C[C@@H]1CCNC1=O` [GC373], the concentration for half-maximal inhibition (IC50) (in general, the concentration at which inhibition is half-maximal) was determined as 0.64 µM.
